According to PubChem BioAssay AID330 (DTP/NCI, 2004):
“And” between values parts separate entries of the source, which are not always exact repeats. Equal values may be shown once. Inconclusive results and toxic doses are left out.

Test system: P388 leukemia ip, CD2F1 mice, survival T/C
Test: NCI In Vivo Anticancer Drug Screen. Data for tumor model P388 Leukemia (intraperitoneal) in CD2F1 (CDF1) mice
Settings: endpoint: median survival time, higher = longer survival
Summary of the method: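 Mice carrying the transplanted tumor received test compound or vehicle. Survival was recorded in each group, and the value is the treated-group measurement divided by that of the vehicle-treated control group.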

[1] = dose: 60.0 mg/kg/injection, schedule: Q01DX005 (ip), vehicle: saline with Tween-80
[2] = dose: 120.0 mg/kg/injection, schedule: Q01DX005 (ip), vehicle: saline with Tween-80
[3] = dose: 50.0 mg/kg/injection, schedule: Q01DX005 (ip), vehicle: saline
[4] = dose: 100.0 mg/kg/injection, schedule: Q01DX005 (ip), vehicle: saline
[5] = dose: 50.0 mg/kg/injection, schedule: Q01DX005 (ip), vehicle: Klucel (hydroxypropylcellulose) (HPC)
[6] = dose: 100.0 mg/kg/injection, schedule: Q01DX005 (ip), vehicle: Klucel (hydroxypropylcellulose) (HPC)
[7] = dose: 50.0 mg/kg/injection, schedule: Q01DX009 (ip), vehicle: saline with Tween-80
[8] = dose: 100.0 mg/kg/injection, schedule: Q01DX009 (ip), vehicle: saline with Tween-80
[9] = dose: 50.0 mg/kg/injection, schedule: Q01DX005 (ip), vehicle: saline with Tween-80
[10] = dose: 100.0 mg/kg/injection, schedule: Q01DX005 (ip), vehicle: saline with Tween-80

**Q.** What does the source list for C(=N/NC1=NCCN1)/c1c2ccccc2c(/C=N\NC2=NCCN2)c2ccccc12?
**A.** T/C (dose: 0.05 mg/kg/injection, schedule: Q01DX009 (ip), vehicle: saline): 155 % of control; T/C (dose: 0.2 mg/kg/injection, schedule: Q01DX009 (ip), vehicle: saline): 161 % of control; T/C (dose: 0.39 mg/kg/injection, schedule: Q01DX009 (ip), vehicle: saline): 183 % of control; T/C (dose: 0.78 mg/kg/injection, schedule: Q01DX009 (ip), vehicle: saline): 238 % of control; T/C (dose: 1.56 mg/kg/injection, schedule: Q01DX009 (ip), vehicle: saline): 188 % of control and 193 % of control; T/C (dose: 3.12 mg/kg/injection, schedule: Q01DX009 (ip), vehicle: saline): 204 % of control; T/C (dose: 5.18 mg/kg/injection, schedule: Q04DX002 (ip), vehicle: saline): 181 % of control; T/C (dose: 6.25 mg/kg/injection, schedule: Q01DX009 (ip), vehicle: saline): 193 % of control; T/C (dose: 7.78 mg/kg/injection, schedule: Q04DX002 (ip), vehicle: saline): 228 % of control; T/C (dose: 8.64 mg/kg/injection, schedule: Q04DX002 (ip), vehicle: saline): 227 % of control; T/C (dose: 12.5 mg/kg/injection, schedule: Q01DX009 (ip), vehicle: saline): 225 % of control; T/C (dose: 13.0 mg/kg/injection, schedule: Q04DX002 (ip), vehicle: saline): 166 % of control; T/C (dose: 14.4 mg/kg/injection, schedule: Q04DX002 (ip), vehicle: saline): 181 % of control; T/C (dose: 21.6 mg/kg/injection, schedule: Q04DX002 (ip), vehicle: saline): 184 % of control; T/C (dose: 24.0 mg/kg/injection, schedule: Q04DX002 (ip), vehicle: saline): 200 % of control; T/C (dose: 25.0 mg/kg/injection, schedule: Q01DX009 (ip), vehicle: saline): 121 % of control; T/C (dose: 29.0 mg/kg/injection, schedule: Q01DX001 (ip), vehicle: water): 195 % of control; T/C (dose: 36.0 mg/kg/injection, schedule: Q04DX002 (ip), vehicle: saline): 210 % of control; T/C (dose: 40.0 mg/kg/injection, schedule: Q04DX002 (ip), vehicle: saline): 181 % of control; T/C (dose: 60.0 mg/kg/injection, schedule: Q04DX002 (ip), vehicle: saline): 192 % of control; T/C (dose: 87.0 mg/kg/injection, schedule: Q01DX001 (ip), vehicle: water): 222 % of control; T/C (dose: 133.0 mg/kg/injection, schedule: Q01DX001 (ip), vehicle: water): 236 % of control; T/C (dose: 200.0 mg/kg/injection, schedule: Q01DX001 (ip), vehicle: water): 286 % of control; T/C (dose: 1.57 micrograms/kg/injection, schedule: Q01DX009 (ip), vehicle: saline): 100 % of control; T/C (dose: 3.13 micrograms/kg/injection, schedule: Q01DX009 (ip), vehicle: saline): 99 % of control; T/C (dose: 6.25 micrograms/kg/injection, schedule: Q01DX009 (ip), vehicle: saline): 107 % of control; T/C (dose: 12.5 micrograms/kg/injection, schedule: Q01DX009 (ip), vehicle: saline): 104 % of control; T/C (dose: 25.0 micrograms/kg/injection, schedule: Q01DX009 (ip), vehicle: saline): 109 % of control; T/C (dose: 50.0 micrograms/kg/injection, schedule: Q01DX009 (ip), vehicle: saline): 122 % of control

**Q.** With CCOC(=O)C(Cc1ccc(N)cc1)N1C(=O)c2ccccc2C1=O (stereo not given) as the molecule, how does the T/C (dose: 50.0 mg/kg/injection, schedule: Q01DX009 (ip), vehicle: distilled water + Tween-80 + alcohol) read?
**A.** 100 % of control

**Q.** And the T/C (dose: 100.0 mg/kg/injection, schedule: Q01DX009 (ip), vehicle: distilled water + Tween-80 + alcohol)?
**A.** 95 % of control

**Q.** And the T/C (dose: 200.0 mg/kg/injection, schedule: Q01DX009 (ip), vehicle: distilled water + Tween-80 + alcohol)?
**A.** 91 % of control

**Q.** Which results are given for COC(=O)c1nc(N)nc(C(=O)OC)c1C(=O)c1cccs1?
**A.** T/C [1]: 98 % of control; T/C [2]: 99 % of control

**Q.** How did the T/C [3] turn out when CCN(CC)C(C)C(=O)c1ccc2cc(Br)c3ccccc3c2c1 (stereo not given) was run?
**A.** 109 % of control

**Q.** And the T/C [4]?
**A.** 113 % of control

**Q.** FC(F)(F)C1(C(F)(F)F)OI2(Br)(OC(C(F)(F)F)(C(F)(F)F)c3ccccc32)c2ccccc21 was tested. Which T/C (dose: 6.25 mg/kg/injection, schedule: Q01DX005 (ip), vehicle: Klucel (hydroxypropylcellulose) (HPC)) did it give?
**A.** 99 % of control

**Q.** What about the T/C (dose: 12.5 mg/kg/injection, schedule: Q01DX005 (ip), vehicle: Klucel (hydroxypropylcellulose) (HPC)) of the same molecule?
**A.** 97 % of control

**Q.** What does the source list for NCCCO[C@H]1CO[C@H]2[C@@H]1OC[C@H]2OCCCN?
**A.** T/C [3]: 100 % of control; T/C [4]: 102 % of control

**Q.** Which T/C [5] does the source give for CC(C)C1CC(O)C(C)C(CN2CCCCC2)C1 (stereo not given) here?
**A.** 105 % of control

**Q.** And the T/C [6]?
**A.** 104 % of control

**Q.** Cc1cc(COCCN(C)C)on1 was tested. Which T/C [1] did it give?
**A.** 97 % of control

**Q.** What about the T/C [2] of the same molecule?
**A.** 104 % of control

**Q.** With N#CNC1=NC(c2ccccc2)CC=C1 (stereo not given) as the molecule, how does the T/C [7] read?
**A.** 102 % of control

**Q.** And the T/C [8]?
**A.** 113 % of control

**Q.** How did the T/C [9] turn out when NC(CS(=O)Cc1ccccc1)C(=O)O (stereo not given) was run?
**A.** 95 % of control

**Q.** What about the T/C [10] of the same molecule?
**A.** 102 % of control

**Q.** Which T/C (dose: 50.0 mg/kg/injection, schedule: Q04DX003 (ip), vehicle: saline with Tween-80) does the source give for CCOC(=O)NC(=S)Nc1ccn(C)c1 here?
**A.** 99 % of control and 101 % of control

**Q.** What about the T/C (dose: 100.0 mg/kg/injection, schedule: Q04DX003 (ip), vehicle: saline with Tween-80) of the same molecule?
**A.** 100 % of control and 94 % of control and 97 % of control

**Q.** And the T/C (dose: 200.0 mg/kg/injection, schedule: Q04DX003 (ip), vehicle: saline with Tween-80)?
**A.** 100 % of control

**Q.** And the T/C (dose: 400.0 mg/kg/injection, schedule: Q04DX003 (ip), vehicle: saline with Tween-80)?
**A.** 98 % of control and 103 % of control and 97 % of control

**Q.** How did the T/C (dose: 50.0 mg/kg/injection, schedule: Q01DX009 (ip), vehicle: Klucel (hydroxypropylcellulose) (HPC)) turn out when CC(/C=C/c1ccccc1)=N\Nc1ccc(Cl)c(Cl)c1 was run?
**A.** 102 % of control

**Q.** What about the T/C (dose: 100.0 mg/kg/injection, schedule: Q01DX009 (ip), vehicle: Klucel (hydroxypropylcellulose) (HPC)) of the same molecule?
**A.** 102 % of control

**Q.** What about the T/C (dose: 200.0 mg/kg/injection, schedule: Q01DX009 (ip), vehicle: Klucel (hydroxypropylcellulose) (HPC)) of the same molecule?
**A.** 100 % of control

**Q.** How did the T/C (dose: 25.0 mg/kg/injection, schedule: Q01DX005 (ip), vehicle: saline with Tween-80) turn out when COc1ccc(CCNC2=CC(=O)CC2)cc1OC was run?
**A.** 92 % of control

**Q.** And the T/C [9]?
**A.** 89 % of control

**Q.** What about the T/C [10] of the same molecule?
**A.** 92 % of control

**Q.** How did the T/C [3] turn out when CC(NC(=O)C(CO)NC(=O)CN)C(=O)O (stereo not given) was run?
**A.** 101 % of control

**Q.** And the T/C [4]?
**A.** 99 % of control

**Q.** And the T/C (dose: 200.0 mg/kg/injection, schedule: Q01DX005 (ip), vehicle: saline)?
**A.** 105 % of control

**Q.** How did the T/C (dose: 12.5 mg/kg/injection, schedule: Q01DX009 (ip), vehicle: saline with Tween-80) turn out when C#CC1(OC(=O)Nc2cccc(Cl)c2)CCCCC1 was run?
**A.** 91 % of control and 97 % of control

**Q.** What about the T/C (dose: 25.0 mg/kg/injection, schedule: Q01DX009 (ip), vehicle: saline with Tween-80) of the same molecule?
**A.** 98 % of control and 110 % of control

**Q.** And the T/C [7]?
**A.** 102 % of control and 105 % of control and 90 % of control

**Q.** And the T/C [8]?
**A.** 106 % of control and 108 % of control

**Q.** And the T/C (dose: 200.0 mg/kg/injection, schedule: Q01DX009 (ip), vehicle: saline with Tween-80)?
**A.** 97 % of control

**Q.** What about the T/C (dose: 400.0 mg/kg/injection, schedule: Q01DX009 (ip), vehicle: saline with Tween-80) of the same molecule?
**A.** 94 % of control

**Q.** Which results are given for N#CCCN(CCC#N)P(=O)(N(CCC#N)CCC#N)N(CCC#N)CCC#N?
**A.** T/C [5]: 100 % of control; T/C [6]: 96 % of control; T/C (dose: 200.0 mg/kg/injection, schedule: Q01DX005 (ip), vehicle: Klucel (hydroxypropylcellulose) (HPC)): 100 % of control
